Assays:
[1] = target: T1, human dopamine D2L receptors (long isoform) (Homo sapiens, UniProt P14416); experiment: Dopamine D2L receptor binding, displacement of [125I]-iodospiperone; settings: ratio Ki(D2L)/Ki(D3); HEK-293 membranes
T1 construct: expressed in transfected cells
Protocol: (§1) The substance to be tested was dissolved either in methanol/Chremophor® (BASF-AG) or in dimethyl sulfoxide and then diluted with water to the desired concentration.
II. Dopamine D2L Receptor:
(§2) Triplicate mixtures were carried out.
The incubation buffer comprised 50 mM Tris, 120 mM NaCl, 5 mM KCl, 2 mM CaCl2, 2 mM MgCl2 and 0.1% bovine serum albumin. The buffer was adjusted to pH 7.4 with HCl.
(§3) III. Measurement and Evaluation:
(§4) After incubation at 25° C. for 60 minutes, the mixtures were filtered under vacuum through Whatman GF/B glass fiber filters using a cell harvester. The filters were transferred by a filter transfer system into scintillation vials. After addition of 4 ml of Ultima Gold® (Packard), the samples were shaken for one hour and then the radioactivity was counted in a beta counter (Packard, Tricarb 2000 or 2200CA). The cp values were converted into dpm by means of a standard quench series with the aid of the instrument's own program.
(§5) Evaluation of the inhibition plots took place by iterative nonlinear regression analysis using the Statistical Analysis System (SAS) similar to the “LIGAND” program described by Munson and Rodbard.

[2] = target: T2, human dopamine D3 receptors (Homo sapiens, UniProt P35462); experiment: Dopamine D3 receptor binding, displacement of [125I]-iodosulpiride; settings: membranes from HEK-293 cells with stably expressed human D3 receptors, 0.1 nM [125I]-iodosulpiride
T2 construct: expressed in transfected cells
T2 sequence (P35462 whole entry): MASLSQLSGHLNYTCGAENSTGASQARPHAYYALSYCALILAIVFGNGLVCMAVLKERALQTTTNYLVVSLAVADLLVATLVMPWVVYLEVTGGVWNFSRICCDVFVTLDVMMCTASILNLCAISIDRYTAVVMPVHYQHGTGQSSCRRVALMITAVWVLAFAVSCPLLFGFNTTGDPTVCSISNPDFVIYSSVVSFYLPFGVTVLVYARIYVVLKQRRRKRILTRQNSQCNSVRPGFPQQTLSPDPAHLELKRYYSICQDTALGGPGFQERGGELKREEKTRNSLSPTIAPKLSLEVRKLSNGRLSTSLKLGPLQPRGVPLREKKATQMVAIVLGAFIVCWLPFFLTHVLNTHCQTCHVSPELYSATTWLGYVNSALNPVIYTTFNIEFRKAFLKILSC
Protocol: as §1, §2
The incubation buffer comprised 50 mM Tris, 120 mM NaCl, 5 mM KCl, 2 mM CaCl2, 2 mM MgCl2 and 0.1% bovine serum albumin, 10 μM quinolone, 0.1% ascorbic acid (prepared fresh each day). The buffer was adjusted to pH 7.4 with HCl.
as §3, §4, §5

T1 sequence (P14416 whole entry, canonical isoform): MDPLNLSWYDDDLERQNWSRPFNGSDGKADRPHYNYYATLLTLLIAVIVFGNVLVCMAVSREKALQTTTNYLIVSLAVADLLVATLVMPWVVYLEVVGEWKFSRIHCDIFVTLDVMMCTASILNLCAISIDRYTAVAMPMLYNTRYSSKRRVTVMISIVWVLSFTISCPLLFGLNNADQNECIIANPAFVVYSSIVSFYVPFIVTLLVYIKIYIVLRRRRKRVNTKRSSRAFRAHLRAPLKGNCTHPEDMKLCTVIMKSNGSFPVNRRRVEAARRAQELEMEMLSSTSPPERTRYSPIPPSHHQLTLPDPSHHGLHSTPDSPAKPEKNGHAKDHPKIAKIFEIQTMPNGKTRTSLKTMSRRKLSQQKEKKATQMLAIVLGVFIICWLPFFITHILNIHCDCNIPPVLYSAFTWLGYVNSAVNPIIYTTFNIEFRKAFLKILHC

SMILES | Selectivity vs. D2L (Ki(D2L)/Ki(D3)) [1] | Ki [2] [nM]
CC(C)(C)c1nc(N2CCN(CCCCN3C(=O)CCC4=C3CCCC4=O)CC2)cc(C(F)(F)F)n1 [Example 45, 1-{4-[4-(2-tert-Butyl-6-trifluoromethyl-pyrimidin-4-yl)piperazin-1-yl]butyl}-4,6,7,8-tetrahydro-1H,3H-quinoline-2,5-dione] | 41 | 4.68
CC(C)(C)c1nc(N2CCN(CCCN3C(=O)CCc4ccccc43)CC2)cc(C(F)(F)F)n1.Cl [Example 1, 1-[2-tert-Butyl-6-(trifluoromethyl)pyrimidin-4-yl]-4-[3-(2-oxo-3,4-dihydroquinolin-1(2H)-yl)propyl]piperazin-4-ium chloride] | 37 | 3.43
CCCc1cc(N2CCN(CCCCN3C(=O)CCc4c(OC)cccc43)CC2)nc(C(C)(C)C)n1 [Example 33, 1-{4-[4-(2-tert-Butyl-6-propylpyrimidin-4-yl)piperazin-1-yl]butyl}-5-methoxy-3,4-dihydroquinolin-2(1H)-one] | 65 | 1.71
CC(C)(C)c1nc(N2CCN(CCCN3C(=O)COc4ccccc43)CC2)cc(C(F)(F)F)n1 [Example 2, 4-(3-{4-[2-tert-Butyl-6-(trifluoromethyl)pyrimidin-4-yl]piperazin-1-yl}propyl)-2H-1,4-benzoxazin-3(4H)-one] | 29 | 12.1
CC(C)(C)c1nc(N2CCN(C/C=C/CN3C(=O)CCc4ccccc43)CC2)cc(C(F)(F)F)n1 [Example 10, 1-((2E)-4-{4-[2-tert-Butyl-6-(trifluoromethyl)pyrimidin-4-yl]piperazin-1-yl}but-2-enyl)-3,4-dihydroquinolin-2(1H)-one] |  | 9.2
CCCc1cc(N2CCN(CCCCN3C(=O)CCCc4c(OC)cccc43)CC2)nc(C(C)(C)C)n1 [Example 54, 1-{4-[4-(2-tert-Butyl-6-propyl-pyrimidin-4-yl)piperazin-1-yl]butyl}-6-methoxy-1,3,4,5-tetrahydro-benzo[b]azepin-2-one] | 25 | 2.25

Now those with a lower Ki [2], led by results:

Selectivity vs. D2L (Ki(D2L)/Ki(D3)) [1] | Ki [2] [nM] | SMILES
38 | 1.59 | CCCc1cc(N2CCN(CCCCN3C(=O)CCc4ccccc43)CC2)nc(C(C)(C)C)n1 [Example 37, 1-{4-[4-(2-tert-Butyl-6-propylpyrimidin-4-yl)piperazin-1-yl]butyl}-3,4-dihydroquinolin-2(1H)-one]
29 | 1.54 | CCCc1cc(N2CCN(CCCCN3C(=O)CCC4=C3CCCC4=O)CC2)nc(C(C)(C)C)n1 [Example 44, 1-{4-[4-(2-tert-Butyl-6-propyl-pyrimidin-4-yl)piperazin-1-yl]butyl}-4,6,7,8-tetrahydro-1H,3H-quinoline-2,5-dione]
41 | 1.18 | CC(C)(C)c1nc(C(F)F)cc(N2CCN(CCCCN3C(=O)CCc4c(O)cccc43)CC2)n1 [Example 36, 1-(4-{4-[2-tert-Butyl-6-(difluoromethyl)pyrimidin-4-yl]piperazin-1-yl}butyl)-5-hydroxy-3,4-dihydroquinolin-2(1H)-one]
26 | 0.69 | CCCc1cc(N2CCN(CCCCN3C(=O)CCCc4c(O)cccc43)CC2)nc(C(C)(C)C)n1 [Example 56, 4-(2-tert-butyl-6-propyl-pyrimidin-4-yl)-1-[4-(6-hydroxy-2-oxo-2,3,4,5-tetrahydro-benzo[b]azepin-1-yl)butyl]piperazine]
